Here are results for 15 compounds from US20200155609A1, “COMPOSITIONS AND METHODS OF MAKING EXPANDED HEMATOPOIETIC STEM CELLS USING PTEN INHIBITORS” (Transfusion Health LLC, priority 2017, published 2020).

Test [1] concerns CD34+ cells isolated from donor non-mobilized peripheral blood (CD133+ and CD90+ cells). Kind of test: Relative expansive effect of SF1670 derivatives, fold change days 2 to 7, non-mobilized peripheral blood CD34+ cells (Example 21). In kind it is cell-based, human. The note with it: fold change days 2 to 7 normalized to basic and +SF (500 nM SF1670) controls. How it is done: CD34+ cells were isolated from donor peripheral blood as described in Example 20. Isolated CD34+ cells were incubated in an in vitro culture media of Alpha MEM without phenol red, 10% (v/v) heat inactivated fetal bovine serum (FBS). When testing the substituted derivatives of 9,10-dihydrophenathrene and phenanthrene (+Derivative conditions), two internal controls were used: a positive control (+SF conditions) and a baseline control (i.e, basic conditions (“cytokines only”)). The media components and concentrations used for the compounds tested are described in Table 6. The culture also included an antibiotic solution that includes penicillin, streptomycin, and amphotericin B to avoid contamination. Controls were included because the amount of expansion in samples obtained varies from individual to individual.
(§1) Cultures were incubated at 3% oxygen (controlled by nitrogen) and 5% CO2.
Small molecule components were added separately and fresh each time the media needs to be refreshed. Cytokines can be stored together. Media renewal should occur at least every few days.
On the days indicated one-half of the volume of the cell culture was removed for data analysis (flow cytometry using a BD FACS ARIA II). The culture volume was replenished with fresh media according to the conditions tested. The data reported accounts for the dilution factor introduced in this procedure.
Separate experiments were performed for each compound tested (Compound 1.001-1.012).
Table 7, below, summarizes the relative expansive effect of Compound 1.001 to 1.012 (sample compounds) at the indicated concentration. The data in Table 7 is reported as the relative expansive effect. The relative expansive effect is a normalized value of the fold changes shown in each of the figures. It is calculated as shown below: […]

The test system is the same in test [2]. The test can be described thus: Relative expansive effect (relative cell number) of SF1670 derivatives, non-mobilized peripheral blood CD34+ cells, cytokines with IL-6 (Example 22). The class given is cell-based, human. How it is done:
CD34+ cells were isolated from donor peripheral blood as described in Example 20. Isolated CD34+ cells were incubated in an in vitro culture media of Alpha MEM without phenol red, 10% (v/v) heat inactivated fetal bovine serum (FBS). When testing the substituted derivatives of 9,10-dihydrophenathrene (+Derivative conditions), two internal controls were used: a positive control (+SF conditions) and a baseline control (i.e, basic conditions (“cytokines only”)). The media components and concentrations used for the compounds tested are described in Table 8. The culture also included an antibiotic solution that includes penicillin, streptomycin, and amphotericin B to avoid contamination. Controls were included because the amount of expansion in samples obtained varies from individual to individual.
as §1
After the indicated number of days one-half of the volume of the cell culture was removed for data analysis (flow cytometry using a BD FACS ARIA II). The culture volume was replenished with fresh media according to the conditions tested.
Separate experiments were performed for each compound tested (Compound 1.014-1.016).
Table 9, below, summarizes the relative expansive effect of Compound 1.014 to 1.016 (sample compounds) at the indicated concentration. The data in Table 9 is reported as the relative cell number. The relative cell number is the normalized value of cell counts after the indicated number of days in culture. It is calculated as shown below: […]

[3] abbreviates: 7 days in culture, 1 μM sample compound.
The mark [4] stands for this setting: 5 days in culture, 0.25 μM sample compound.
Where [5] appears, read: 7 days in culture, 2 μM sample compound.

Take `CC(C)(C)CC(=O)Nc1ccc2c(c1)C(=O)C(=O)c1ccccc1-2` [Compound 1.004, N-(9,10-dioxo-9,10-dihydrophenanthren-2-yl)-3,3-dimethylbutanamide]: in test [1] (0.125 μM sample compound), the “CD90 effect (relative expansive effect of CD90+ cells)” value is reported as “++ (0.2 ≤ x < 0.55)” and the “CD133 effect (relative expansive effect of CD133+ cells)” value is listed as “+ (x < 0.2)”.

For the compound `CC(C)(C)C(=O)CNc1ccc2c(c1)C(=O)C(=O)c1ccccc1-2` [Compound 1.002, 2-((3,3-dimethyl-2-oxobutyl)amino)phenanthrene-9,10-dione], in test [1] (1 μM sample compound), the “CD90 effect (relative expansive effect of CD90+ cells)” value was “++ (0.2 ≤ x < 0.55)” and the “CD133 effect (relative expansive effect of CD133+ cells)” value is recorded as “+ (x < 0.2)”.

As to `CC(C)(C)C(=O)Nc1ccc2c(c1)C(=O)C(=O)c1cc(N)ccc1-2` [Compound 1.007, N-(7-amino-9,10-dioxo-9,10-dihydrophenanthren-2-yl)pivalamide], in test [1] (1 μM sample compound), the “CD90 effect (relative expansive effect of CD90+ cells)” value was “++ (0.2 ≤ x < 0.55)” and the “CD133 effect (relative expansive effect of CD133+ cells)” value is “++ (0.2 ≤ x < 0.55)”.

For the compound `CC(C)(C)NC(=O)c1ccc2c(c1)C(=O)C(=O)c1ccccc1-2` [Compound 1.001, N-(tert-butyl)-9,10-dioxo-9,10-dihydrophenanthrene-2-carboxamide], in test [1] (0.5 μM sample compound), the “CD90 effect (relative expansive effect of CD90+ cells)” value is on record as “++ (0.2 ≤ x < 0.55)” and the “CD133 effect (relative expansive effect of CD133+ cells)” value is “+ (x < 0.2)”.

As for `COCCOc1c(O)c2cc(NC(=O)C(C)(C)C)ccc2c2ccccc12` [Compound 1.014, N-(10-hydroxy-9-(2-methoxyethoxy)phenanthren-2-yl)pivalamide], in test [2] (setting [3]), the “CD90 effect (relative expansive effect, relative cell number)” value is “++ (0.2 ≤ x < 0.55)” and the “CD133 effect (relative expansive effect, relative cell number)” value is “++ (0.2 ≤ x < 0.55)”.

For `CCCC(C)(C)C(=O)Nc1ccc2c(c1)C(=O)C(=O)c1ccccc1-2` [Compound 1.010, N-(9,10-dioxo-9,10-dihydrophenanthren-2-yl)-2,2-dimethylpentanamide], in test [1] (0.125 μM sample compound), the “CD90 effect (relative expansive effect of CD90+ cells)” value is on record as “+++ (0.55 ≤ x < 0.9)” and the “CD133 effect (relative expansive effect of CD133+ cells)” value is reported as “+ (x < 0.2)”.

Consider `CC(C)(C)C(=O)Nc1ccc2c(c1)C(=O)C(=NO)c1ccccc1-2` [Compound 1.016, N-(9-(hydroxyimino)-10-oxo-9,10-dihydrophenanthren-2-yl)pivalamide], for which, in test [2] (setting [4]), the “CD90 effect (relative expansive effect, relative cell number)” value is “++ (0.2 ≤ x < 0.55)” and the “CD133 effect (relative expansive effect, relative cell number)” value is “++ (0.2 ≤ x < 0.55)”.

Turning to `O=C1C(=O)c2ccc(NC(=O)C(Cl)(Cl)Cl)cc2-c2ccccc21` [Compound 1.011, 2,2,2-trichloro-N-(9,10-dioxo-9,10-dihydrophenanthren-3-yl)acetamide], in test [1] (0.25 μM sample compound), the “CD90 effect (relative expansive effect of CD90+ cells)” value was “++++ (0.9 ≤ x < 1.25)” and the “CD133 effect (relative expansive effect of CD133+ cells)” value is “++ (0.2 ≤ x < 0.55)”.

As to `O=C1C(=O)c2cc(NC(=O)C(Cl)(Cl)Cl)ccc2-c2ccccc21` [Compound 1.009, 2,2,2-trichloro-N-(9,10-dioxo-9,10-dihydrophenanthren-2-yl)acetamide], in test [1] (0.5 μM sample compound), the “CD90 effect (relative expansive effect of CD90+ cells)” value is listed as “+++ (0.55 ≤ x < 0.9)” and the “CD133 effect (relative expansive effect of CD133+ cells)” value is “++ (0.2 ≤ x < 0.55)”.

For the compound `CC(=O)Oc1c(OC(C)=O)c2cc(NC(=O)C(C)(C)C)ccc2c2ccccc12` [Compound 1.012, 2-pivalamidophenanthrene-9,10-diyl Diacetate], in test [1] (0.5 μM sample compound), the “CD90 effect (relative expansive effect of CD90+ cells)” value is given as “+++++ (1.25 ≤ x)” and the “CD133 effect (relative expansive effect of CD133+ cells)” value is reported as “++++ (0.9 ≤ x < 1.25)”.

For the compound `O=C(COCc1ccccc1)Nc1ccc2c(c1)C(=O)C(=O)c1ccccc1-2` [Compound 1.015, 2-(benzyloxy)-N-(9,10-dioxo-9,10-dihydrophenanthren-2-yl)acetamide], in test [2] (setting [5]), the “CD90 effect (relative expansive effect, relative cell number)” value is given as “+++++ (1.25 ≤ x)” and the “CD133 effect (relative expansive effect, relative cell number)” value was “+++ (0.55 ≤ x < 0.9)”.

`CCCCCCCCCC(=O)Nc1ccc2c(c1)C(=O)C(=O)c1ccccc1-2` [Compound 1.005, N-(9,10-dioxo-9,10-dihydrophenanthren-2-yl)decanamide]: in test [1] (2 μM sample compound), the “CD90 effect (relative expansive effect of CD90+ cells)” value is “++ (0.2 ≤ x < 0.55)” and the “CD133 effect (relative expansive effect of CD133+ cells)” value is given as “+ (x < 0.2)”.

`CCC(C)(C)C(=O)Nc1ccc2c(c1)C(=O)C(=O)c1ccccc1-2` [Compound 1.008, N-(9,10-dioxo-9,10-dihydrophenanthren-2-yl)-2,2-dimethylbutanamide]: in test [1] (1 μM sample compound), the “CD90 effect (relative expansive effect of CD90+ cells)” value was “++ (0.2 ≤ x < 0.55)” and the “CD133 effect (relative expansive effect of CD133+ cells)” value was “++ (0.2 ≤ x < 0.55)”.

`Nc1ccc2c(c1)C(=O)C(=O)c1cc(NC(=O)CC(=O)O)ccc1-2` [Compound 1.003, 3-((7-amino-9,10-dioxo-9,10-dihydrophenanthren-2-yl)amino)-3-oxopropanoic acid]: in test [1] (0.125 μM sample compound), the “CD90 effect (relative expansive effect of CD90+ cells)” value is listed as “++ (0.2 ≤ x < 0.55)” and the “CD133 effect (relative expansive effect of CD133+ cells)” value is listed as “+ (x < 0.2)”.

On to `CC(=O)Nc1ccc2c(c1)C(=O)C(=O)c1ccccc1-2` [Compound 1.006, N-(9,10-dioxo-9,10-dihydrophenanthren-2-yl)acetamide], for which, in test [1] (0.5 μM sample compound), the “CD90 effect (relative expansive effect of CD90+ cells)” value is reported as “++ (0.2 ≤ x < 0.55)” and the “CD133 effect (relative expansive effect of CD133+ cells)” value is recorded as “+ (x < 0.2)”.
